Measurements from patent publication US20190387739A1, “HERBICIDAL COMBINATION CONTAINING TRIAFAMONE AND INDAZIFLAM” (Bayer CropScience Aktiengesellschaft, priority 2016, published 2019).

What was measured:
Format in all cases: in vivo
Triticum aestivum = test: Greenhouse post-emergence herbicidal effect against Triticum aestivum; conditions: 216 h, 9 DAA, read-out: % Efficacy; for Emax at 5 g/ha: individual application 5 g of AS/ha; for Emax at 10 g/ha: individual application 10 g of AS/ha; for Emax at 20 g/ha: individual application 20 g of AS/ha
Protocol: (§1) Post-emergence action against weeds
(§2) Seeds or rhizome pieces of mono- and dicotyledonous harmful plants and of crop plants were placed in sandy loam in plastic pots having a diameter of 4 cm, covered with soil and cultivated in a greenhouse under good growth conditions.
(§3) Ten to twenty days after sowing, the test plants were treated at the one- to three-leaf stage. The herbicide/active compound combinations according to the invention (mixture applications) formulated as suspensions and, in parallel tests, the correspondingly formulated individual active compounds (individual applications) were then sprayed onto the green parts of the plants in various dosages at a water application rate of 300 I/ha (converted).
(§4) After the test plants had been kept in the greenhouse under optimum growth conditions for a certain period of time (DAA, days after application), the herbicidal activity was assessed visually by comparison of treated and untreated plants. The percentages mean: 0%=no herbicidal activity, 100%=the plants die off completely.
(§5) The percentages from the treatments with the herbicides alone (individual applications) and with the combinations according to the invention (mixture applications) were employed to calculate interactions using the method of Colby. When the observed efficacies of the mixture applications exceed the formal sum of the values of the tests with individual applications, they also exceed the expected value according to Colby, which is calculated using the formula below (cf. S. R. Colby; in Weeds 15 (1967) pp. 20 to 22):
(§6) Here: • A, B=activity of component A (triafamone) or B (indaziflam) in percent at a dosage of a and b, respectively, in g of AS/ha (gram of active substance per hectare). • exp. expected value in % at a dosage of a+b g of ai/ha. • b) Results
(§7) The abbreviations in the tables below have the following meanings: • DAA=days after application • g of AS/ha=grams of active substance per hectare • % efficacy=herbicidal effect in percent • meas.=measured values • exp.=expected values according to Colby (calculation: see above) • syn.%=difference (%) of measured value from expected value (%) (measured value minus expected value)/

Lolium rigidum = test: Greenhouse post-emergence herbicidal effect against Lolium rigidum; conditions: 216 h, 9 DAA, read-out: % Efficacy; for Emax at 10 g/ha: individual application 10 g of AS/ha; for Emax at 20 g/ha: individual application 20 g of AS/ha
Protocol: as §1, §2, §3, §4, §5, §6, §7

Alopecurus myosuroides = test: Greenhouse post-emergence herbicidal effect against Alopecurus myosuroides; conditions: 408 h, 17 DAA, read-out: % Efficacy; for Emax at 5 g/ha: individual application 5 g of AS/ha
Protocol: as §1, §2, §3, §4, §5, §6, §7

Viola tricolor = test: Greenhouse post-emergence herbicidal effect against Viola tricolor; conditions: 408 h, 17 DAA, read-out: % Efficacy; for Emax at 5 g/ha: individual application 5 g of AS/ha
Protocol: as §1, §2, §3, §4, §5, §6, §7

Zea mays = test: Greenhouse post-emergence herbicidal effect against Zea mays; conditions: 408 h, 17 DAA, read-out: % Efficacy; for Emax at 10 g/ha: individual application 10 g of AS/ha
Protocol: as §1, §2, §3, §4, §5, §6, §7

Avena fatua = test: Greenhouse post-emergence herbicidal effect against Avena fatua; conditions: 408 h, 17 DAA, read-out: % Efficacy
Protocol: as §1, §2
(§8) Ten to twenty days after sowing, the test plants were treated at the one- to three-leaf stage. […]
(§9) After the test plants had been kept in the greenhouse under optimum growth conditions for a certain period of time (DAA, days after application), the herbicidal activity was assessed visually by comparison of treated and untreated plants. […]
as §5, with “22): […]” for “22):”

Hordeum murinum = test: Greenhouse post-emergence herbicidal effect against Hordeum murinum; conditions: 408 h, 17 DAA, read-out: % Efficacy; for Emax at 20 g/ha: individual application 20 g of AS/ha
Protocol: as §1, §2, §3, §4, §5, §6, §7

Glycine max = test: Greenhouse post-emergence herbicidal effect against Glycine max; conditions: 408 h, 17 DAA, read-out: % Efficacy; for Emax at 10 g/ha: individual application 10 g of AS/ha
Protocol: as §1, §2, §3, §4, §5, §6, §7

[1] = test system: mono- and dicotyledonous harmful plants and crop plants; test: Greenhouse trials, discussion of the results over all test plants; conditions: at the dosages tested, post-emergence
Protocol: as §1, §2, §8, §9
as §5, with “22): […]” for “22):”

[2] = individual application 10 g of AS/ha
[3] = individual application 20 g of AS/ha
[4] = individual application 5 g of AS/ha
[5] = individual application 2.5 g of AS/ha

With `Cc1ccc2c(c1)[C@H](Nc1nc(N)nc(C(C)F)n1)[C@@H](C)C2` (stereo partly drawn) [indaziflam] as the compound, how does the Emax at 5 g/ha (Triticum aestivum) read?
The Emax at 5 g/ha was 23%.

And the Emax at 10 g/ha (Triticum aestivum)?
Its Emax at 10 g/ha is 23%.

And the Emax at 20 g/ha (Triticum aestivum)?
Its Emax at 20 g/ha is 48%.

What about the Emax at 40 g/ha (Triticum aestivum; individual application 40 g of AS/ha) of the same compound?
Its Emax at 40 g/ha is 63%.

What about the Emax at 10 g/ha (Lolium rigidum) of the same compound?
The Emax at 10 g/ha was 63%.

And the Emax at 20 g/ha (Lolium rigidum)?
Its Emax at 20 g/ha is 70%.

What about the Emax at 5 g/ha (Alopecurus myosuroides) of the same compound?
The Emax at 5 g/ha was 15%.

And the Emax at 10 g/ha (Alopecurus myosuroides; [2])?
Its Emax at 10 g/ha is 60%.

What about the Emax at 20 g/ha (Alopecurus myosuroides; [3]) of the same compound?
The Emax at 20 g/ha was 75%.

And the Emax at 5 g/ha (Viola tricolor)?
The Emax at 5 g/ha was 80%.

And the Emax at 10 g/ha (Zea mays)?
The Emax at 10 g/ha was 0%.

What about the Emax at 20 g/ha (Zea mays; [3]) of the same compound?
The Emax at 20 g/ha was 25%.

And the Emax at 5 g/ha (Avena fatua; [4])?
The Emax at 5 g/ha was 10%.

What about the Emax at 20 g/ha (Hordeum murinum) of the same compound?
Its Emax at 20 g/ha is 40%.

And the Emax at 5 g/ha (Glycine max; [4])?
Its Emax at 5 g/ha is 50%.

And the Emax at 10 g/ha (Glycine max)?
Its Emax at 10 g/ha is 73%.

With `COc1nc(OC)nc(C(=O)c2cccc(F)c2N(C)S(=O)(=O)C(F)F)n1` [triafamone] as the compound, how does the Emax at 2.5 g/ha (Triticum aestivum; [5]) read?
The Emax at 2.5 g/ha was 0%.

And the Emax at 5 g/ha (Triticum aestivum)?
Its Emax at 5 g/ha is 0%.

What about the Emax at 10 g/ha (Triticum aestivum) of the same compound?
The Emax at 10 g/ha was 0%.

And the Emax at 20 g/ha (Triticum aestivum)?
The Emax at 20 g/ha was 13%.

And the Emax at 2.5 g/ha (Lolium rigidum; [5])?
Its Emax at 2.5 g/ha is 0%.

And the Emax at 5 g/ha (Lolium rigidum; [4])?
Its Emax at 5 g/ha is 0%.

What about the Emax at 10 g/ha (Lolium rigidum) of the same compound?
Its Emax at 10 g/ha is 0%.

What about the Emax at 20 g/ha (Lolium rigidum) of the same compound?
The Emax at 20 g/ha was 18%.

And the Emax at 2.5 g/ha (Alopecurus myosuroides; [5])?
Its Emax at 2.5 g/ha is 25%.

What about the Emax at 5 g/ha (Alopecurus myosuroides) of the same compound?
The Emax at 5 g/ha was 50%.

And the Emax at 2.5 g/ha (Viola tricolor; [5])?
The Emax at 2.5 g/ha was 0%.

And the Emax at 5 g/ha (Viola tricolor)?
Its Emax at 5 g/ha is 0%.

What about the Emax at 10 g/ha (Viola tricolor; [2]) of the same compound?
The Emax at 10 g/ha was 0%.

And the Emax at 2.5 g/ha (Zea mays; [5])?
Its Emax at 2.5 g/ha is 0%.

What about the Emax at 5 g/ha (Zea mays; [4]) of the same compound?
Its Emax at 5 g/ha is 0%.

And the Emax at 10 g/ha (Zea mays)?
Its Emax at 10 g/ha is 0%.

What about the Emax at 10 g/ha (Avena fatua; [2]) of the same compound?
The Emax at 10 g/ha was 0%.

What about the Emax at 2.5 g/ha (Hordeum murinum; [5]) of the same compound?
The Emax at 2.5 g/ha was 0%.

What about the Emax at 5 g/ha (Hordeum murinum; [4]) of the same compound?
The Emax at 5 g/ha was 0%.

What about the Emax at 20 g/ha (Hordeum murinum) of the same compound?
Its Emax at 20 g/ha is 0%.

And the Emax at 2.5 g/ha (Glycine max; [5])?
Its Emax at 2.5 g/ha is 0%.

And the Emax at 10 g/ha (Glycine max)?
The Emax at 10 g/ha was 0%.

And the “herbicidal efficacy as individual herbicide” value [1]?
Its value is “frequently ineffective”.
